The numbers were not newly measured in patent publication US20050287587A1, “Production of glycosylated macrolides in E. coli” (The Board of Trustees of the Leland Stanford Junior …, priority 2002, published 2005), which cites them from elsewhere.

The conditions of this data set: general background statement, no strain or method given.

`CC[C@H]1OC(=O)[C@H](C)[C@@H](O)[C@H](C)[C@@H](O)[C@@H](C)C[C@@H](C)C(=O)[C@H](C)[C@@H](O)[C@H]1C` [6-deoxyerythronolide B]: the antibacterial activity entry was “no antibacterial activity”.
